Data from PubChem BioAssay (NCI).
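The compound was tested at five concentrations on cells cultured in 96-well plates, with a 48-hour exposure period. GI50 marks 50% less growth. TGI: total growth inhibition.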

How the values were obtained:
Assay in all cases: DTP human tumour cell line panel, 48 h
786-0 renal = test system: 786-0 renal
A549 NSCLC = test system: A549 NSCLC
ACHN renal = test system: ACHN renal
HCT-15 colon = test system: HCT-15 colon
K-562 leukemia = test system: K-562 leukemia
LOX IMVI melanoma = test system: LOX IMVI melanoma
NCI-H522 lung = test system: NCI-H522 lung
SF-268 CNS = test system: SF-268 CNS
SK-MEL-2 melanoma = test system: SK-MEL-2 melanoma
UACC-257 melanoma = test system: UACC-257 melanoma

SMILES | GI50 (786-0 renal) [µM] | TGI (786-0 renal) [µM] | GI50 (A549 NSCLC) [µM] | TGI (A549 NSCLC) [µM] | GI50 (ACHN renal) [µM] | TGI (ACHN renal) [µM] | GI50 (HCT-15 colon) [µM] | TGI (HCT-15 colon) [µM] | GI50 (K-562 leukemia) [µM] | TGI (K-562 leukemia) [µM] | GI50 (LOX IMVI melanoma) [µM] | TGI (LOX IMVI melanoma) [µM] | GI50 (NCI-H522 lung) [µM] | TGI (NCI-H522 lung) [µM] | GI50 (SF-268 CNS) [µM] | TGI (SF-268 CNS) [µM] | GI50 (SK-MEL-2 melanoma) [µM] | TGI (SK-MEL-2 melanoma) [µM] | GI50 (UACC-257 melanoma) [µM] | TGI (UACC-257 melanoma) [µM]
Cc1cc(I)cc(CN(C)CCN2CCCC2)c1O | 21.1 | 59.8 | 37.9 | > 100 | 25.7 | > 84.4 | 24.4 | 73.7 | 8.53 | 26.4 | 17.8 | 35.2 | 19.9 | 43.4 | 32.4 | > 88.2 | 25.6 | 63.1 | 32.2 | 51.4
O=C1NC(=S)NC(=O)C1=Cc1cccc2cc3ccccc3cc12 | – | 3.42 | – | 12.7 | – | 3.51 | – | 4.07 | – | > 24 | – | 4.49 | – | 4.36 | – | 4.73 | – | 4.1 | – | 3.37
C1CCN(C2OC3C(COC3N3CCCCC3)OC2OC2CCO[C@@H]2N2CCCCC2)CC1 (stereo not given in full) | – | > 100 | – | > 100 | – | > 100 | – | > 100 | – | > 100 | – | > 100 | – | 25.8 | – | > 100 | – | > 100 | – | 88.1
Cc1ccc(C(=O)C(Cl)C(Cl)c2ccc(C)cc2)cc1 (stereo not given) | – | 4.61 | – | > 91.8 | – | 3.13 | – | 3.73 | – | 7.15 | – | 3.78 | – | 10.7 | – | 21.2 | – | 36.2 | – | 4.48
O=c1[nH]c2c3ccccc3ccc2c2cc3c(cc12)OCO3 | – | > 100 | – | > 100 | – | > 100 | – | > 100 | – | > 100 | – | > 100 | – | > 100 | – | > 100 | – | > 100 | – | > 100
O=C(O)CC12C3C4C5C3C1C5C42 (stereo not given) | – | > 100 | – | > 100 | – | > 100 | – | > 100 | – | > 100 | – | > 100 | – | > 100 | – | > 100 | – | > 100 | – | > 100
CCN=c1cc2sc3cc(NCC)c(C)cc3nc-2cc1C | 3.1 | 15.5 | 1.84 | 10.9 | 1.58 | 10.6 | 0.489 | 9.51 | 0.358 | 16.3 | 0.746 | 4.28 | 0.419 | 2.61 | 2.47 | 14.4 | 1.82 | 4.64 | 1.66 | 6.55
CCn1c(O)c(C=N)c(=O)n(CC)c1=O | – | > 100 | – | > 100 | – | > 100 | – | > 100 | – | > 100 | – | > 100 | – | > 100 | – | > 100 | – | > 100 | – | > 100
COC1OC(C)C(O)CC1OS(=O)(=O)c1ccc(C)cc1 (stereo not given) | – | > 100 | – | > 100 | – | > 100 | – | > 100 | – | > 100 | – | > 100 | – | > 100 | – | > 100 | – | > 100 | – | > 100
C[C@]12CC[C@H](OCCC#N)CC1=CC[C@@H]1C2CC[C@]2(C)/C(=N/OCCC#N)CCC12 (stereo not given in full) | – | > 76.6 | – | > 100 | – | > 100 | – | > 100 | – | > 100 | – | > 100 | – | > 100 | – | > 100 | – | > 100 | – | > 100
C=CCN1C=CC(=O)[C@H](O[Si](C)(C)C(C)(C)C)[C@@H]1/C=C/c1ccccc1 | 15.4 | 29.4 | 16.8 | 50.3 | 15.5 | 29.2 | 12.5 | 25.6 | 9.56 | 31.3 | 13.1 | 26.4 | 13 | 28.3 | 15.1 | 30.9 | 17 | 34.2 | 17.9 | 37.2
COC(=O)C(=O)C(C#N)c1ccc(CC#N)cc1 (stereo not given) | – | > 100 | – | > 100 | – | > 100 | – | > 100 | – | > 100 | – | > 100 | – | > 100 | – | > 100 | – | > 100 | – | > 100
COc1cccc(-c2nc3sccn3c2-c2ccnc(NCCNS(=O)(=O)c3ccccc3)c2)c1 | 4 | > 100 | 2.68 | > 100 | 2.22 | > 100 | 2.55 | > 100 | 1.46 | > 100 | 3.01 | 84.1 | 2.26 | 27.6 | 3.54 | > 100 | 1.96 | 5.96 | 4.47 | 55.2
O=c1ccnc2c1ccc1[nH]cccc12 | – | > 100 | – | > 100 | – | > 100 | – | > 100 | – | > 100 | – | > 100 | – | > 100 | – | > 100 | – | > 100 | – | > 100
